Experimental data reported in paper PMC9959244, “Revisiting the Solubility–Permeability Relationship with Hydrophobic Drug Umifenovir in Pluronic Solutions: Impact of pH and Co-Solvent” (Pharmaceutics, 2023).
≈ marks a conversion by molar mass, not a printed value. Where two headings read alike, the source gives them in different places.

What was measured:
[1] = Phase solubility, shake-flask method with UV spectrophotometry; type: physicochemical; conditions: for solubility at 3 days: aqueous buffer (shake-flask)
Description: The solubility of UMF was measured in pure buffers pH 2.0 and pH 7.4, with the additions of 1.5 w/v%, 4.0 w/v%, 5.5 w/v%, 7.0 w/v% of F-127, and in all these solutions in the presence of 10% and 20% ethanol at 310.15 ± 0.1 K by the standard shake-flask method. The concentrations of F-127 were chosen purposely to avoid the formation of a gel (at approximately 20% w/w in water at 310.15 K). Since the aim of the study was to evaluate the possibility of preparation of pharmaceutical products based on UMF, the experimental temperature was selected to be as very close to the normal temperature of a healthy human. […] The experimental results are presented as an average of at least three replicated experiments.

[2] = In vitro permeability, Franz diffusion cell; type: in vitro ADME
Description: The permeability coefficients of UMF were measured in a Franz diffusion cell of a vertical type (PermeGear, Inc., Hellertown, PA, USA) at 310.15 ± 0.1 K. The experimental setup is fully described and illustrated in our previous study. All the experiments were carried out with the help of a regenerated cellulose membrane with a molecular weight cut-off (MWCO) of 12–14 kDa (Standard Grade RC Dialysis Membrane, Flat Width 45 mm) pretreated with water for 30 min and dried under air. A cellulose membrane MWCO 6–8 kDa was additionally used for several experiments. The membrane effective surface area was 0.785 cm^2. It was placed between the donor (7 mL of the stock UMF solution) and acceptor (pure solvent without UMF—blank solution) chambers. In the case of the pH 2.0 donor solution, the blank solution at pH 7.4 was applied in the acceptor chamber in order to simulate the compound transfer to the blood plasma. Samples of 0.5 mL were withdrawn every 30 min from the acceptor chamber and replaced with an equal amount of pure buffer pH 7.4. The solutions were analyzed using a plate-type spectrophotometer (Spectramax 190; Molecular devices, Molecular Devices Corporation, California, USA) and a 96-well UV black plate (Costar). The plot of the cumulative amount of the compound (Q) permeated through the membrane of effective surface area (A) versus time (t) was constructed and the apparent permeability coefficient (Papp) was calculated by the equation:Papp = J/C0(1) where J is the flux through the membrane derived as a slope of the permeation plot (J = dQ/(A·dt)), and C0 is the UMF concentration in the donor solution. Papp values were taken as an average of at least 3 or more experiments.

[3] = PXRD analysis of solid residuals after solubility experiments; type: physicochemical
Description: The powder XRD data were recorded under ambient conditions on a D2 Phaser (Bragg Brentano) diffractometer (Bruker AXS, Karlsruhe, Germany) with a copper X-ray source (λCuKα1 = 1.5406Å) and a high-resolution position-sensitive LYNXEYE XE-T detector. The samples were placed into the plate sample holders and rotated at a speed of 15 rpm during the data acquisition.
In order to trace possible transformations of the UMF base, the solid residuals left after each solubility experiment were isolated, dried under air and subjected to PXRD analysis together with the raw UMF base and UMF∙HCl∙H2O. […] Importantly, all the parameters obtained for the acidic solutions (solubility, permeability, micellization, and aggregation characteristics) refer to UMF∙HCl∙H2O, in spite of the fact that initially the UMF base was subjected to the experiments.

[4] = design: method as in earlier work; conditions: cited from earlier work

Compound: CCOC(=O)c1c(CSc2ccccc2)n(C)c2cc(Br)c(O)c(CN(C)C)c12 [UMF, 6-bromo-4-dimethylaminomethyl-5-hydroxy-1-methyl-2-phenylthiomethyl indole-3-carboxylic acid ethyl ester]
- Solubility increase by ethanol vs buffer pH 7.4 ([1]; 10% EtOH): 1.13 fold
- Solubility increase by ethanol vs buffer pH 7.4 ([1]; 20% EtOH): 1.8 fold
- Greater solubility in acidic medium (pH 2.0) as compared to alkaline one (pH 7.4) ([1]; 310.15 K): 44.4 fold
- solubility at 3 days ([1]; 37 °C, pH 2, aqueous buffer, thermodynamic from solid, Solubility SUMF·103, buffer pH 2.0, 0 w/v% F-127, 310.15 K, value is S×10^3, heading: Solubility SUMF·103): 710 ± 20 µM (≈ 339 µg/mL)
- solubility at 3 days ([1]; 37 °C, pH 2, aqueous buffer, thermodynamic from solid, pH 2.0, 310.15 K, read-out: Solubility in pure buffer): 711 µM (≈ 339 µg/mL)
- solubility at 3 days ([1]; 37 °C, pH 2, aqueous with cosolvent or surfactant or cyclodextrin, thermodynamic from solid, Solubility SUMF·103, buffer pH 2.0, 1.5 w/v% F-127, 310.15 K, value is S×10^3, heading: Solubility SUMF·103): 2050 ± 40 µM (≈ 979 µg/mL)
- solubility at 3 days ([1]; 37 °C, pH 2, aqueous with cosolvent or surfactant or cyclodextrin, thermodynamic from solid, Solubility SUMF·103, buffer pH 2.0, 4.0 w/v% F-127, 310.15 K, value is S×10^3, heading: Solubility SUMF·103): 3990 ± 80 µM (≈ 1900 µg/mL)
- solubility at 3 days ([1]; 37 °C, pH 2, aqueous with cosolvent or surfactant or cyclodextrin, thermodynamic from solid, Solubility SUMF·103, buffer pH 2.0, 5.5 w/v% F-127, 310.15 K, value is S×10^3, heading: Solubility SUMF·103): 5610 ± 40 µM (≈ 2680 µg/mL)
- solubility at 3 days ([1]; 37 °C, pH 2, aqueous with cosolvent or surfactant or cyclodextrin, thermodynamic from solid, Solubility SUMF·103, buffer pH 2.0, 7.0 w/v% F-127, 310.15 K, value is S×10^3, heading: Solubility SUMF·103): 6340 ± 30 µM (≈ 3030 µg/mL)
- solubility at 3 days ([1]; 37 °C, pH 7.4, aqueous buffer, thermodynamic from solid, buffer pH 7.4, 0 w/v% F-127, 310.15 K, value is S×10^4, read-out: Solubility SUMF·104): 16 ± 0.1 µM (≈ 7.64 µg/mL)
- solubility at 3 days ([1]; 37 °C, pH 7.4, aqueous with cosolvent or surfactant or cyclodextrin, thermodynamic from solid, 7.0% F-127 + 20% EtOH, buffer pH 7.4, 310.15 K, read-out: Maximum solubility value): 1180 µM
- solubility at 3 days ([1]; 37 °C, pH 7.4, aqueous with cosolvent or surfactant or cyclodextrin, thermodynamic from solid, buffer pH 7.4 +10% EtOH, 0 w/v% F-127, 310.15 K, value is S×10^4, read-out: Solubility SUMF·104): 18 ± 0.1 µM (≈ 8.59 µg/mL)
- solubility at 3 days ([1]; 37 °C, pH 7.4, aqueous with cosolvent or surfactant or cyclodextrin, thermodynamic from solid, buffer pH 7.4 +10% EtOH, 1.5 w/v% F-127, 310.15 K, value is S×10^4, read-out: Solubility SUMF·104): 194 ± 1 µM (≈ 92.6 µg/mL)
- solubility at 3 days ([1]; 37 °C, pH 7.4, aqueous with cosolvent or surfactant or cyclodextrin, thermodynamic from solid, buffer pH 7.4 +10% EtOH, 4.0 w/v% F-127, 310.15 K, value is S×10^4, read-out: Solubility SUMF·104): 477 ± 3 µM (≈ 228 µg/mL)
- solubility at 3 days ([1]; 37 °C, pH 7.4, aqueous with cosolvent or surfactant or cyclodextrin, thermodynamic from solid, buffer pH 7.4 +10% EtOH, 5.5 w/v% F-127, 310.15 K, value is S×10^4, read-out: Solubility SUMF·104): 689 ± 7 µM (≈ 329 µg/mL)
- solubility at 3 days ([1]; 37 °C, pH 7.4, aqueous with cosolvent or surfactant or cyclodextrin, thermodynamic from solid, buffer pH 7.4 +10% EtOH, 7.0 w/v% F-127, 310.15 K, value is S×10^4, read-out: Solubility SUMF·104): 806 ± 7 µM (≈ 385 µg/mL)
- solubility at 3 days ([1]; 37 °C, pH 7.4, aqueous with cosolvent or surfactant or cyclodextrin, thermodynamic from solid, buffer pH 7.4 +20% EtOH, 0 w/v% F-127, 310.15 K, value is S×10^4, read-out: Solubility SUMF·104): 30 ± 1 µM (≈ 14.3 µg/mL)
- solubility at 3 days ([1]; 37 °C, pH 7.4, aqueous with cosolvent or surfactant or cyclodextrin, thermodynamic from solid, buffer pH 7.4 +20% EtOH, 1.5 w/v% F-127, 310.15 K, value is S×10^4, read-out: Solubility SUMF·104): 276 ± 3 µM (≈ 132 µg/mL)
- solubility at 3 days ([1]; 37 °C, pH 7.4, aqueous with cosolvent or surfactant or cyclodextrin, thermodynamic from solid, buffer pH 7.4 +20% EtOH, 4.0 w/v% F-127, 310.15 K, value is S×10^4, read-out: Solubility SUMF·104): 700 ± 5 µM (≈ 334 µg/mL)
- solubility at 3 days ([1]; 37 °C, pH 7.4, aqueous with cosolvent or surfactant or cyclodextrin, thermodynamic from solid, buffer pH 7.4 +20% EtOH, 5.5 w/v% F-127, 310.15 K, value is S×10^4, read-out: Solubility SUMF·104): 983 ± 11 µM (≈ 469 µg/mL)
- solubility at 3 days ([1]; 37 °C, pH 7.4, aqueous with cosolvent or surfactant or cyclodextrin, thermodynamic from solid, buffer pH 7.4, 1.5 w/v% F-127, 310.15 K, value is S×10^4, read-out: Solubility SUMF·104): 174 ± 3 µM (≈ 83.1 µg/mL)
- solubility at 3 days ([1]; 37 °C, pH 7.4, aqueous with cosolvent or surfactant or cyclodextrin, thermodynamic from solid, buffer pH 7.4, 4.0 w/v% F-127, 310.15 K, value is S×10^4, read-out: Solubility SUMF·104): 393 ± 3 µM (≈ 188 µg/mL)
- solubility at 3 days ([1]; 37 °C, pH 7.4, aqueous with cosolvent or surfactant or cyclodextrin, thermodynamic from solid, buffer pH 7.4, 5.5 w/v% F-127, 310.15 K, value is S×10^4, read-out: Solubility SUMF·104): 586 ± 2 µM (≈ 280 µg/mL)
- solubility at 3 days ([1]; 37 °C, pH 7.4, aqueous with cosolvent or surfactant or cyclodextrin, thermodynamic from solid, buffer pH 7.4, 7.0 w/v% F-127, 310.15 K, value is S×10^4, read-out: Solubility SUMF·104): 696 ± 4 µM (≈ 332 µg/mL)
- solubility at 3 days ([1]; pH 7.4, pH 7.4, 310.15 K, read-out: Solubility in pure buffer): 15.8 µM (≈ 7.54 µg/mL)
- Solubility enhancement by 7.0% F-127 ([1]; buffer pH 2.0, vs without F-127): 8.9 fold
- Solubility enhancement by 7.0% F-127 ([1]; buffer pH 7.4 + 10% EtOH, vs without F-127): 44.8 fold
- Solubility enhancement by 7.0% F-127 ([1]; buffer pH 7.4 + 20% EtOH, vs without F-127): 39.3 fold
- Solubility enhancement by 7.0% F-127 ([1]; buffer pH 7.4, vs without F-127): 43.5 fold
- Permeability coefficient in pure buffer pH 7.4 greater than in pH 2.0 [2]: 2.1 fold
- Permeability increase by EtOH in buffer pH 7.4 ([2]; 10% EtOH): 1.4 fold
- Permeability increase by EtOH in buffer pH 7.4 ([2]; 20% EtOH): 1.2 fold
- Permeability reduction by 4.0% F-127 vs pure buffer ([2]; buffer pH 7.4): 2.35 fold
- Papp in 20% EtOH + 1.5% F-127 lower than in buffer pH 7.4 + 1.5% F-127 ([2]; pH 7.4): 5.1 fold
- Papp in 20% EtOH + 1.5% F-127 lower than in buffer pH 7.4 +20% EtOH ([2]; pH 7.4): 10.8 fold
- Papp in 20% EtOH + 1.5% F-127 lower than in pure buffer pH 7.4 ([2]; pH 7.4): 9.1 fold
- Solid phase after dissolution (PXRD) ([3]; acidic buffer (pH 2.0)): transformed into the apparently more stable hydrochloride monohydrate
- Solid phase after dissolution (PXRD) ([3]; all the systems with buffer pH 7.4): No transformations
- pKa [4]: 6.0
